From PMC5218480 (PLoS ONE, 2017)

Test system: MV-4-11 cells
Assay: Gene expression microarray analysis (Affymetrix PrimeView) and GSEA
Type: cell-based, human
Set-up: RFU PODN (11730768_x_at) / Fold change /veh PODN (11730768_x_at) / RFU LINC00158 (11744669_a_at) / Fold change /veh LINC00158 (11744669_a_at) / RFU DUSP10 (11751237_a_at) / Fold change /veh DUSP10 (11751237_a_at) / RFU ID3 (11757404_x_at) / Fold change /veh ID3 (11757404_x_at) / RFU PLEKHG5 (11737974_s_at) / Fold change /veh PLEKHG5 (11737974_s_at) / RFU LRRC4B (11730491_at) / Fold change /veh LRRC4B (11730491_at) / RFU GIMAP4 (11747438_a_at) / Fold change /veh GIMAP4 (11747438_a_at) / RFU KRT8 (11758183_x_at) / Fold change /veh KRT8 (11758183_x_at) / RFU CNN1 (11734310_a_at) / Fold change /veh CNN1 (11734310_a_at) / RFU VPS37D (11726825_at) / Fold change /veh VPS37D (11726825_at) / RFU C10orf10 (11716522_x_at) / Fold change /veh C10orf10 (11716522_x_at) / RFU KIR2DL2 /// KIR2DL4 /// KIR2DL5A /// KIR2DL5B /// KIR2DS1 /// KIR2DS2 /// KIR2DS3 /// KIR2DS4 /// KIR3DL3 /// KIR3DL3 /// KIR3DS1 (11738374_at) / Fold change /veh KIR2DL2 /// KIR2DL4 /// KIR2DL5A /// KIR2DL5B /// KIR2DS1 /// KIR2DS2 /// KIR2DS3 /// KIR2DS4 /// KIR3DL3 /// KIR3DL3 /// KIR3DS1 (11738374_at) / RFU C1QL1 (11718748_at) / Fold change /veh C1QL1 (11718748_at) / RFU TMPRSS4 (11747572_a_at) / Fold change /veh TMPRSS4 (11747572_a_at) / RFU HAMP (11756126_x_at) / Fold change /veh HAMP (11756126_x_at) / RFU RNFT2 (11725882_a_at) / Fold change /veh RNFT2 (11725882_a_at) / RFU NR4A2 (11747474_a_at) / Fold change /veh NR4A2 (11747474_a_at) / RFU ABCC12 (11746883_a_at) / Fold change /veh ABCC12 (11746883_a_at) / RFU TMEM136 (11760407_x_at) / Fold change /veh TMEM136 (11760407_x_at) / RFU CLDN22 /// WWC2 (11732394_at) / Fold change /veh CLDN22 /// WWC2 (11732394_at) / RFU HLA-DPB1 (11760878_x_at) / Fold change /veh HLA-DPB1 (11760878_x_at) / RFU SPINT1 (11716480_a_at) / Fold change /veh SPINT1 (11716480_a_at) / RFU GAP43 (11754022_s_at) / Fold change /veh GAP43 (11754022_s_at) / RFU A4GNT (11735810_at) / Fold change /veh A4GNT (11735810_at) / RFU PRB3 (11715151_x_at) / Fold change /veh PRB3 (11715151_x_at) / RFU TUBB4B (11761932_at) / Fold change /veh TUBB4B (11761932_at) / RFU CAPN14 (11732068_a_at) / Fold change /veh CAPN14 (11732068_a_at) / RFU TMCC2 (11721928_a_at) / Fold change /veh TMCC2 (11721928_a_at) / RFU IRGQ (11745062_a_at) / Fold change /veh IRGQ (11745062_a_at) / RFU FAM174B (11720279_a_at) / Fold change /veh FAM174B (11720279_a_at) / RFU TMPRSS4 (11748680_a_at) / Fold change /veh TMPRSS4 (11748680_a_at) / RFU FAM212B (11763350_a_at) / Fold change /veh FAM212B (11763350_a_at) / RFU PLEKHG5 (11743358_a_at) / Fold change /veh PLEKHG5 (11743358_a_at) / RFU ZSCAN30 (11745921_a_at) / Fold change /veh ZSCAN30 (11745921_a_at) / RFU CMKLR1 (11741424_a_at) / Fold change /veh CMKLR1 (11741424_a_at) / RFU LOC101060620 /// MAPK8IP1 (11723275_at) / Fold change /veh LOC101060620 /// MAPK8IP1 (11723275_at) / RFU SPTSSB (11747773_x_at) / Fold change /veh SPTSSB (11747773_x_at) / RFU PRSS12 (11739890_at) / Fold change /veh PRSS12 (11739890_at) / RFU BIN1 (11741810_x_at) / Fold change /veh BIN1 (11741810_x_at) / RFU WNT11 (11732464_a_at) / Fold change /veh WNT11 (11732464_a_at) / RFU C10orf10 (11716521_a_at) / Fold change /veh C10orf10 (11716521_a_at) / RFU C5orf56 (11738089_at) / Fold change /veh C5orf56 (11738089_at) / RFU CYB561 (11721691_x_at) / Fold change /veh CYB561 (11721691_x_at) / RFU ANKRD19P (11752326_a_at) / Fold change /veh ANKRD19P (11752326_a_at) / RFU OR2T12 /// OR2T33 /// OR2T8 (11738714_s_at) / Fold change /veh OR2T12 /// OR2T33 /// OR2T8 (11738714_s_at) / RFU VCAN (11748164_a_at) / Fold change /veh VCAN (11748164_a_at) / RFU JSRP1 (11732532_at) / Fold change /veh JSRP1 (11732532_at) / RFU KRTAP10-11 (11738290_x_at) / Fold change /veh KRTAP10-11 (11738290_x_at) / RFU MYO3A (11730013_a_at) / Fold change /veh MYO3A (11730013_a_at) / RFU EBF3 (11725865_a_at) / Fold change /veh EBF3 (11725865_a_at) / RFU CAMK2N1 (11719241_x_at) / Fold change /veh CAMK2N1 (11719241_x_at) / RFU C5orf56 (11738088_a_at) / Fold change /veh C5orf56 (11738088_a_at) / RFU OLFML3 (11715873_a_at) / Fold change /veh OLFML3 (11715873_a_at) / RFU LOC100653217 /// NTM (11731650_a_at) / Fold change /veh LOC100653217 /// NTM (11731650_a_at) / RFU MAPK11 (11762145_a_at) / Fold change /veh MAPK11 (11762145_a_at) / RFU FIZ1 (11724087_x_at) / Fold change /veh FIZ1 (11724087_x_at) / RFU OASL (11726364_x_at) / Fold change /veh OASL (11726364_x_at) / RFU SOX15 (11748057_x_at) / Fold change /veh SOX15 (11748057_x_at) / RFU CD79A (11719716_a_at) / Fold change /veh CD79A (11719716_a_at) / RFU HIST1H1D (11736915_at) / Fold change /veh HIST1H1D (11736915_at) / RFU CASKIN2 (11723855_a_at) / Fold change /veh CASKIN2 (11723855_a_at) / RFU LOC730098 (11760151_x_at) / Fold change /veh LOC730098 (11760151_x_at) / RFU OR4N2 (11742367_at) / Fold change /veh OR4N2 (11742367_at) / RFU PRRT2 (11749266_a_at) / Fold change /veh PRRT2 (11749266_a_at) / RFU SNX32 (11753110_a_at) / Fold change /veh SNX32 (11753110_a_at) / RFU CDHR5 (11726645_a_at) / Fold change /veh CDHR5 (11726645_a_at) / RFU RCAN1 (11760418_a_at) / Fold change /veh RCAN1 (11760418_a_at) / RFU FAM167A (11723789_a_at) / Fold change /veh FAM167A (11723789_a_at) / RFU FAM26E (11764081_at) / Fold change /veh FAM26E (11764081_at) / RFU ISYNA1 (11749810_s_at) / Fold change /veh ISYNA1 (11749810_s_at) / RFU ACY1 (11761880_at) / Fold change /veh ACY1 (11761880_at) / RFU 11764098_at / Fold change /veh 11764098_at / RFU SAMD14 (11745864_x_at) / Fold change /veh SAMD14 (11745864_x_at) / RFU NPB (11741838_a_at) / Fold change /veh NPB (11741838_a_at) / RFU TMPRSS6 (11731388_a_at) / Fold change /veh TMPRSS6 (11731388_a_at) / RFU KRTAP10-2 (11738614_at) / Fold change /veh KRTAP10-2 (11738614_at) / RFU ARHGAP8 /// PRR5-ARHGAP8 (11727945_x_at) / Fold change /veh ARHGAP8 /// PRR5-ARHGAP8 (11727945_x_at) / RFU KRTAP5-7 /// NADSYN1 (11734609_at) / Fold change /veh KRTAP5-7 /// NADSYN1 (11734609_at) / RFU RASL12 (11751679_a_at) / Fold change /veh RASL12 (11751679_a_at) / RFU CDKN2B (11736163_a_at) / Fold change /veh CDKN2B (11736163_a_at) / RFU PRF1 (11729649_at) / Fold change /veh PRF1 (11729649_at) / RFU, ZNF638 /// ZNF638-IT1 / Fold change vs veh, ZNF638 /// ZNF638-IT1 / RFU, PANK3 / Fold change vs veh, PANK3 / RFU, SH3YL1 / Fold change vs veh, SH3YL1 / RFU, ZEB2 / Fold change vs veh, ZEB2 / RFU, NRIP1 / Fold change vs veh, NRIP1 / RFU, PTTG1IP / Fold change vs veh, PTTG1IP / RFU, CAPN2 / Fold change vs veh, CAPN2 / RFU, MED14 / Fold change vs veh, MED14 / RFU, SNORA58 / Fold change vs veh, SNORA58 / RFU, C1orf63 / Fold change vs veh, C1orf63 / RFU, LRRFIP1 / Fold change vs veh, LRRFIP1 / RFU, NDUFAF7 / Fold change vs veh, NDUFAF7 / RFU, SLC12A2 / Fold change vs veh, SLC12A2 / RFU, IBTK / Fold change vs veh, IBTK / RFU, ESF1 / Fold change vs veh, ESF1 / Fold change vs veh, TMEM50B / RFU, TAOK1 / Fold change vs veh, TAOK1 / RFU, ACBD3 / Fold change vs veh, ACBD3 / RFU, TMA16 / Fold change vs veh, TMA16 / RFU, RWDD3 / Fold change vs veh, RWDD3 / RFU, BCAT1 / Fold change vs veh, BCAT1 / RFU, EDEM3 / Fold change vs veh, EDEM3 / RFU, TMEM33 / Fold change vs veh, TMEM33 / RFU, WDR75 / Fold change vs veh, WDR75 / RFU, AHCTF1 / Fold change vs veh, AHCTF1 / RFU, TFRC / Fold change vs veh, TFRC / RFU, ZDHHC17 / Fold change vs veh, ZDHHC17 / RFU, NOM1 / Fold change vs veh, NOM1 / RFU, ARL8B / Fold change vs veh, ARL8B / RFU, ZBTB11 / Fold change vs veh, ZBTB11 / RFU, TAMM41 / Fold change vs veh, TAMM41 / RFU, KIAA1704 /// LOC100996395 / Fold change vs veh, KIAA1704 /// LOC100996395 / RFU, ING1 / Fold change vs veh, ING1 / RFU, TRMT61B / Fold change vs veh, TRMT61B / RFU, FUBP3 / Fold change vs veh, FUBP3 / RFU, TP53 / Fold change vs veh, TP53 / RFU, TNKS2 / Fold change vs veh, TNKS2 / RFU, ZFP14 / Fold change vs veh, ZFP14 / RFU, ACTR2 / Fold change vs veh, ACTR2 / RFU, PPP3R1 / Fold change vs veh, PPP3R1 / RFU, PIK3R1 / Fold change vs veh, PIK3R1 / RFU, HNRNPA1 / Fold change vs veh, HNRNPA1 / RFU, RNF170 / Fold change vs veh, RNF170 / RFU, ZNF28 / Fold change vs veh, ZNF28 / RFU, RNGTT / Fold change vs veh, RNGTT / RFU, OGT / Fold change vs veh, OGT / RFU, BRD1 / Fold change vs veh, BRD1 / RFU, MARS / Fold change vs veh, MARS / RFU, ZNF655 / Fold change vs veh, ZNF655 / RFU, FAHD1 / Fold change vs veh, FAHD1 / RFU, BDP1 / Fold change vs veh, BDP1 / RFU, LRRCC1 / Fold change vs veh, LRRCC1 / RFU, ARID1A / Fold change vs veh, ARID1A / RFU, ZNF146 / Fold change vs veh, ZNF146 / RFU, ZNF330 / Fold change vs veh, ZNF330 / RFU, GPN3 / Fold change vs veh, GPN3 / RFU, C9orf123 / Fold change vs veh, C9orf123 / RFU, N4BP2L2 / Fold change vs veh, N4BP2L2 / RFU, ARFIP1 / Fold change vs veh, ARFIP1 / RFU, FAM179B / Fold change vs veh, FAM179B / RFU, BCL10 / Fold change vs veh, BCL10 / RFU, UHRF1BP1L / Fold change vs veh, UHRF1BP1L / RFU, BET1 / Fold change vs veh, BET1 / RFU, CNOT2 / Fold change vs veh, CNOT2 / RFU, ZNF268 / Fold change vs veh, ZNF268 / Fold change vs veh, ZNF507 / RFU, DGCR2 / Fold change vs veh, DGCR2 / RFU, WDSUB1 / Fold change vs veh, WDSUB1 / Fold change vs veh, HSP90B1 /// MIR3652 / RFU, ADSS / Fold change vs veh, ADSS / RFU, GK / Fold change vs veh, GK / RFU, ZNF148 / Fold change vs veh, ZNF148 / RFU, TAF9 / Fold change vs veh, TAF9 / RFU, SLC1A5 / Fold change vs veh, SLC1A5 / RFU, SLMO2 / Fold change vs veh, SLMO2 / RFU, ABCC4 / Fold change vs veh, ABCC4 / RFU, LOC101060439 /// RAP1B / Fold change vs veh, LOC101060439 /// RAP1B / RFU, RFX7 / Fold change vs veh, RFX7 / RFU, GTPBP10 / Fold change vs veh, GTPBP10 / RFU, CNEP1R1 / Fold change vs veh, CNEP1R1 / RFU, BIVM-ERCC5 /// ERCC5 / Fold change vs veh, BIVM-ERCC5 /// ERCC5 / RFU, ILF3 / Fold change vs veh, ILF3 / RFU 11762660_at / Fold change /veh 11762660_at / RFU VCAN (11757783_s_at) / Fold change /veh VCAN (11757783_s_at) / RFU DDX43 (11728927_at) / Fold change /veh DDX43 (11728927_at) / RFU KRT8 (11758188_x_at) / Fold change /veh KRT8 (11758188_x_at) / RFU NKD1 (11759106_at) / Fold change /veh NKD1 (11759106_at) / RFU SRD5A1 (11742802_a_at) / Fold change /veh SRD5A1 (11742802_a_at) / RFU TPSAB1 /// TPSB2 (11721975_s_at) / Fold change /veh TPSAB1 /// TPSB2 (11721975_s_at) / RFU GSTM3 (11746129_a_at) / Fold change /veh GSTM3 (11746129_a_at) / RFU IL23R (11737362_x_at) / Fold change /veh IL23R (11737362_x_at) / RFU TMEM51 (11727254_a_at) / Fold change /veh TMEM51 (11727254_a_at) / RFU PIWIL2 (11732686_x_at) / Fold change /veh PIWIL2 (11732686_x_at) / RFU ORM1 (11744905_x_at) / Fold change /veh ORM1 (11744905_x_at) / RFU CCDC152 (11743942_at) / Fold change /veh CCDC152 (11743942_at) / RFU ECM1 (11717891_a_at) / Fold change /veh ECM1 (11717891_a_at) / RFU IL23R (11748794_a_at) / Fold change /veh IL23R (11748794_a_at) / RFU TNFAIP8L3 (11732012_x_at) / Fold change /veh TNFAIP8L3 (11732012_x_at) / RFU MBOAT4 (11741988_at) / Fold change /veh MBOAT4 (11741988_at) / RFU 11764193_at / Fold change /veh 11764193_at / RFU TMEM53 (11763286_at) / Fold change /veh TMEM53 (11763286_at) / RFU MAGEB2 (11727129_at) / Fold change /veh MAGEB2 (11727129_at) / RFU TMEM200A (11744735_a_at) / Fold change /veh TMEM200A (11744735_a_at) / RFU CCDC152 (11751479_a_at) / Fold change /veh CCDC152 (11751479_a_at) / RFU FAM211A (11726209_a_at) / Fold change /veh FAM211A (11726209_a_at) / RFU RGS16 (11746705_a_at) / Fold change /veh RGS16 (11746705_a_at) / RFU VCAN (11755009_s_at) / Fold change /veh VCAN (11755009_s_at) / RFU RHOB (11743442_s_at) / Fold change /veh RHOB (11743442_s_at) / RFU RGS16 (11720943_a_at) / Fold change /veh RGS16 (11720943_a_at) / RFU RGS16 (11720944_at) / Fold change /veh RGS16 (11720944_at) / RFU, VPS4B / Fold change vs veh, VPS4B / RFU, CREB1 / Fold change vs veh, CREB1 / RFU, DNAJC13 / Fold change vs veh, DNAJC13 / RFU, GNAQ / Fold change vs veh, GNAQ / RFU, CDK5R1 / Fold change vs veh, CDK5R1 / RFU, ZRANB3 / Fold change vs veh, ZRANB3 / RFU, CUL4A / Fold change vs veh, CUL4A / RFU, CCNY / Fold change vs veh, CCNY / RFU, UFL1 / Fold change vs veh, UFL1 / RFU, COG3 / Fold change vs veh, COG3 / RFU, DIAPH2 / Fold change vs veh, DIAPH2 / RFU, SKA2 / Fold change vs veh, SKA2 / RFU, AFF3 / Fold change vs veh, AFF3 / RFU, LMF1 / Fold change vs veh, LMF1 / RFU, IPO11 / Fold change vs veh, IPO11 / RFU, DFFB / Fold change vs veh, DFFB / RFU, FOXP1 / Fold change vs veh, FOXP1 / RFU, CARD8 / Fold change vs veh, CARD8 / RFU, STRN3 / Fold change vs veh, STRN3 / RFU, ADK / Fold change vs veh, ADK / RFU, RASSF2 / Fold change vs veh, RASSF2 / RFU, WIPF1 / Fold change vs veh, WIPF1 / RFU, LARP1B / Fold change vs veh, LARP1B / RFU, RASA1 / Fold change vs veh, RASA1 / RFU, RB1 / Fold change vs veh, RB1 / RFU, PPFIA1 / Fold change vs veh, PPFIA1 / RFU, MAT2A / Fold change vs veh, MAT2A / RFU, CCT5 / Fold change vs veh, CCT5 / RFU, WDR92 / Fold change vs veh, WDR92 / RFU, CUX1 / Fold change vs veh, CUX1 / RFU, TTC7A / Fold change vs veh, TTC7A / RFU, TMEM135 / Fold change vs veh, TMEM135 / RFU, DEPTOR / Fold change vs veh, DEPTOR / RFU, CPM / Fold change vs veh, CPM / RFU, DNAJB6 / Fold change vs veh, DNAJB6 / RFU, CACNA2D3 / Fold change vs veh, CACNA2D3 / RFU, DTX4 / Fold change vs veh, DTX4 / RFU, TFCP2 / Fold change vs veh, TFCP2 / RFU, GMCL1 /// GMCL1P1 / Fold change vs veh, GMCL1 /// GMCL1P1 / RFU, AEBP2 / Fold change vs veh, AEBP2 / RFU, SNHG1 /// SNORD22 /// SNORD25 /// SNORD26 /// SNORD27 /// SNORD28 /// SNORD29 /// SNORD31 / Fold change vs veh, SNHG1 /// SNORD22 /// SNORD25 /// SNORD26 /// SNORD27 /// SNORD28 /// SNORD29 /// SNORD31 / Fold change (Aza/veh), C12orf56 (ProbeSet 11735607_a_at) / Fold change (ACY-1035/veh), C12orf56 (ProbeSet 11735607_a_at) / Fold change (Aza/veh), FGFR1OP (ProbeSet 11751329_s_at) / Fold change (ACY-1035/veh), FGFR1OP (ProbeSet 11751329_s_at) / Fold change (Aza/veh), VPS36 (ProbeSet 11739960_a_at) / Fold change (ACY-1035/veh), VPS36 (ProbeSet 11739960_a_at) / RFU SYPL1 (11715823_x_at) / Fold change /veh SYPL1 (11715823_x_at) / RFU IGFBP7 (11715501_s_at) / Fold change /veh IGFBP7 (11715501_s_at) / RFU REEP3 (11722064_at) / Fold change /veh REEP3 (11722064_at) / RFU IGLL1 (11728026_x_at) / Fold change /veh IGLL1 (11728026_x_at): dose or concentration left out as unconfirmed
Conditions: ProbeSet 11722302_a_at; LIST B

Nc1ncn([C@@H]2O[C@H](CO)[C@@H](O)[C@H]2O)c(=O)n1 [azacitidine]
Fold change vs veh, LRRFIP1: 0.89
